Entries after “also recorded” stand apart in the source; their conditions may differ.
Columns and labels:
[1] = system: human monocytes (THP-1); assay: IL-8 production by THP-1 monocytes (ELISA); type: cell-based; settings: 18 hours; for IL-8 production compared to the dsDNA-gld-1 complex: peptide in the presence of dsDNA; for IL-8 secretion: dsDNA+peptide, compared to media control, dsDNA alone or peptide alone
Protocol: (§1) In order to test the biological impact of gluten peptide fragment/dsDNA complexes, human monocytes (THP-1) and human colorectal adenocarcinoma cells (HT-29) were treated with medium as a control, dsDNA alone, gld-1 alone, or dsDNA+gld-1 for 18 hours, then production and secretion of interleukin-8 (IL-8) were assessed by ELISA.

[2] = system: Escherichia coli dsDNA; assay: Small Angle X-ray Scattering (SAXS) of peptide-dsDNA complexes; type: binding; settings: peptide incubated with genomic E. coli dsDNA
Protocol: The peaks correspond to a rhombic columnar lattice with inter dsDNA spacing, d=4.0 nm, and tilt angle, γ=104.6°. To facilitate visualization, spectra were manually offset vertically by a multiplicative factor.
Double stranded DNA (dsDNA) is an example of a PAMP that is readily available in the gastrointestinal tract (e.g., from food or the gut microbiome). To assess the ability of gluten derived peptide gld-1 to bind dsDNA, Escherichia coli dsDNA was incubated with gld-1, and the formation of an ordered dsDNA-gld-1 complex was assessed.
Small Angle X-ray Scattering (SAXS) measurements of the complex produced Bragg reflections at q10=1.61 and q11=2.55 nm^−1.
Genomic E. coli dsDNA was incubated with gld-2 and gld-3 to test the formation of an ordered dsDNA-peptide complex.

[3] = system: human colorectal adenocarcinoma cells (HT-29); assay: IL-8 production by HT-29 cells (ELISA); type: cell-based; settings: dsDNA+peptide, 18 hours, compared to dsDNA or peptide alone or media control
Protocol: as §1

[4] = system: TLR9 knock-out (TLR9KO) mouse macrophages; assay: Cytokine gene expression (qPCR) in TLR9 knockout macrophages; type: cell-based; settings: dsDNA-peptide complex, 20 hours, TLR9KO versus wild-type
Description: (§2) To further validate the role of the dsDNA-gld-1 complex in the innate immune activation of TLR9, TLR9 knock-out (TLR9KO) mouse macrophages were compared to wild-type controls. […] Such increased gene expression was attenuated in TLR9KO macrophages, which lack TLR9 (FIG. 6C).

[5] = target: T1, human wild-type TLR9 (Homo sapiens, UniProt Q9NR96); assay: NF-κB/IL-8 luciferase reporter in HEK293 cells transfected with TLR9 plasmid; type: cell-based; settings: 4 hours
T1 construct: expressed in transfected cells
T1 sequence (Q9NR96 26-1032): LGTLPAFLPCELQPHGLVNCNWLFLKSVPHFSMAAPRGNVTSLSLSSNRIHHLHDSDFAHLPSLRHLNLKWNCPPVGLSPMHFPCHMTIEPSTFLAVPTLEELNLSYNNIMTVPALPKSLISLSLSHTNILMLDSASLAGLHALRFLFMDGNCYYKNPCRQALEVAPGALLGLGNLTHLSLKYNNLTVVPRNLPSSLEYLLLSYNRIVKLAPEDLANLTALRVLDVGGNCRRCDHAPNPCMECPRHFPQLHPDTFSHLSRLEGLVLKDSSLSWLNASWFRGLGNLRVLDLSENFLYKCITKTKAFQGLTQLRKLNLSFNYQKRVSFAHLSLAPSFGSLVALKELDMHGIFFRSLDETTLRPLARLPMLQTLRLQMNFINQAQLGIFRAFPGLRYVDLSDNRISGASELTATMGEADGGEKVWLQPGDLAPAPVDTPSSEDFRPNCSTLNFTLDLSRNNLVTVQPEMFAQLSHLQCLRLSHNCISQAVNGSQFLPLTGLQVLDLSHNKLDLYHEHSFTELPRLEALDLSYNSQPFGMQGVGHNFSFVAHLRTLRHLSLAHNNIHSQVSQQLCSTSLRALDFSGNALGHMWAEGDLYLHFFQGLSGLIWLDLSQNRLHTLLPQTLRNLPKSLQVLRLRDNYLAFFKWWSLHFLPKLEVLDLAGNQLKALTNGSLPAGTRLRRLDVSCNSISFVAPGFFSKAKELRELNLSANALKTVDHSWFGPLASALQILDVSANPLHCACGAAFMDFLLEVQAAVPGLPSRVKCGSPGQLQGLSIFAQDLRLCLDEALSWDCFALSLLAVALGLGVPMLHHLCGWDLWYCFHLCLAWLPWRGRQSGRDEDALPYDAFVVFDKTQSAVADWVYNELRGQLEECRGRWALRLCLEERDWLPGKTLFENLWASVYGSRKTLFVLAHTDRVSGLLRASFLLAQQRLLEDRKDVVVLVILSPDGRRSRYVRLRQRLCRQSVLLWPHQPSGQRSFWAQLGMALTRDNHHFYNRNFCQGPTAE
Protocol: TLR9, Toll-like Receptor 9.
(§3) After 48 hours of recovery, cells were then treated for 4 hours with medium as a control, dsDNA alone, gld-1 peptide alone, or dsDNA-gld-1 complex, and luciferase activity measured.

[6] = system: HEK293 cells (which do not express TLR9); assay: NF-κB/IL-8 luciferase reporter in HEK293 cells transfected with pcDNA3.1 vector control; type: cell-based, human; settings: 4 hours
Protocol: as §3

[7] = system: wild-type macrophages; assay: Cytokine gene expression (qPCR) in wild-type macrophages; type: cell-based, mouse; settings: dsDNA-peptide complex, 20 hours
Description: as §2

“LAAQLWQIPEQSRAQAIHNVVH (listed as Triticum aestivum) [gld-1A, variant of gld-1 in which all cysteines were replaced with alanines]” was tested, and the “IL-8 production compared to the dsDNA-gld-1 complex” value [1] was “reduced the dsDNA-peptide complex activity”.
In the case of “LWQIPEQSQCQAIHNVVHA (listed as Triticum aestivum) [gld-2, single mutation of gld-1 replacing a cationic amino acid with glutamine]”, the “IL-8 production compared to the dsDNA-gld-1 complex” value [1] is reported as “attenuated production of IL-8” and the “formation of an ordered nanocrystalline dsDNA-peptide complex (Bragg peaks)” value (“formation” for short) [2] is reported as “inability of these two peptides to form an ordered nanocrystalline columnar structure with dsDNA”.
For “LWQIPEQSQCQAIHNVVQA (listed as Triticum aestivum) [gld-3, double mutation of gld-1 replacing cationic amino acids with glutamine]”, the “IL-8 production compared to the dsDNA-gld-1 complex” value [1] was “attenuated production of IL-8” and the “formation” value [2] was “inability of these two peptides to form an ordered nanocrystalline columnar structure with dsDNA”.
For “LWQIPEQSRCQAIHNVVHA (listed as Triticum aestivum) [gld-1]”, the IL-8 secretion [1] was “significant increase in IL-8 secretion”, the IL-8 secretion [3] was “increased secretion of IL-8” and the IL-6 gene expression [4] was “attenuated”. The “NF-κB/IL-8 activation (luciferase)” value ([5]; dsDNA-peptide complex, compared to dsDNA alone) was “significantly higher activation”, the “NF-κB/IL-8 activation (luciferase)” value ([5]; dsDNA-peptide complex, compared to the media control) was “significant increase” and the “NF-κB/IL-8 activation (luciferase)” value ([5]; peptide alone, compared to the media control) was “did not significantly increase activation”. The “formation” value [2] was “form strongly immunomodulatory complexes with dsDNA; also recorded: able to organize dsDNA into a nano-crystalline lattice structure; also recorded: able to form a well-structured complex”, the “NF-κB/IL-8 luciferase reporter signal” value ([6]; dsDNA-peptide complex) was “comparable NF-κB/IL-8 luciferase reporter signal to the media control” and the “NF-κB/IL-8 luciferase reporter signal” value ([6]; peptide alone) was “comparable NF-κB/IL-8 luciferase reporter signal to the media control”. For the same sequence, the “interleukin-6 (IL-6) gene expression” value [7] was “significant increase” and the “keratinocyte-derived chemokine (KC) gene expression” value [7] was “significant increase”.
With “RAAQQLRDVSAKARSVAVSQVAR (listed as Triticum aestivum) [gld-4A, cysteine-to-alanine mutant of gld-4]” the “IL-8 production, gld-4A compared to gld-4” value ([1]; with dsDNA) was “No significant difference”.
With “RCCQQLRDVSAKCRSVAVSQVAR (listed as Triticum aestivum) [gld-4]” the IL-8 secretion [1] was “stimulated IL-8 production” and the “IL-8 production compared to the dsDNA-gld-1 complex” value [1] was “smaller than the dsDNA-gld-1 complex”.
